Measurements: patent US20130273649A1, “Culture medium for pluripotent stem cells” (UNIVERSITY OF SOUTHERN CALIFORNIA, priority 2012, published 2013)

Columns and labels:
Type in all cases: cell-based
[1] = system: β-catenin/TCF-responsive TOPFlash reporter; experiment: TOPFlash reporter assay in mouse EpiSCs; settings: CD1 mouse EpiSCs, 12 hours, added to CHIR
Protocol: (§1) (A) TOPFlash™ assay in CD1 mouse EpiSCs treated with the indicated inhibitors for 12 hours. Data represent mean±s.d. of three biological replicates. (B) Representative phase contrast images of CD1 mouse EpiSCs cultured in the indicated conditions for 7 days. (C) Western blot analysis of CD1 mouse EpiSCs treated with the indicated inhibitors for 12 h. (D) qRT-PCR analysis of Axin1 and Axin2 mRNA levels in CD1 mouse EpiSCs stably transfected with Axin1 shRNA or Axin2 shRNA. Data represent mean±s.d. of three biological replicates. (E) Colony assay on CD1 mouse EpiSCs stably transfected with scramble, Axin1, or Axin2 shRNAs. Cells were plated onto a 6-well plate at a density of 5,000 cells/well and cultured in CHIR/IWR-1. Colonies were counted 7 days after plating. Data represent the total combined numbers of colonies from two independent experiments in which each shRNA-transfected group was cultured in one well of a 6-well plate. (F) Representative phase contrast images of CD 1 mouse EpiSCs stably transfected with the indicated shRNAs and cultured in CHIR/IWR-1 for 7 days. (G) Western blot analysis of CD1 mouse EpiSCs overexpressing Flag-tagged Axin1 or Axin2. (H) Representative phase contrast images of CD1 mouse EpiSCs overexpressing Axin1 or Axin2 and cultured in CHIR for 7 days. Axin2-overexpressing EpiSCs could be continually passaged in CHIR alone. Scale bars, 50 μm (B, F and H)
Next, we investigated the mechanism by which CHIR/XAV promotes EpiSC self-renewal. By inhibiting GSK3 phosphorylation of β-catenin, CHIR stabilizes β-catenin, which then trans-locates to the nucleus and forms complexes with DNA-binding proteins, including TCFs, to activate transcription (Logan and Nusse, 2004). […]
(§2) For quantifying relative Oct3/4 enhancer activities, pGL3-Oct4 DE and pGL3-Oct4 PE plasmids (gifts from Hans Schöler's lab) were co-transfected with the Renilla vector, using the Amaxa™ Transfection Kit (Lonza). […] For quantifying relative β-catenin/Tcf transcriptional activity, pGL2-SuperTOP™ plasmid (gift from Randall Moon) was co-transfected with the Renilla vector and assayed accordingly.

[2] = system: Axin1; experiment: Western blot of Axin1 in mouse EpiSCs; settings: CD1 mouse EpiSCs treated 12 h
Protocol: as §1
Next, we investigated the mechanism by which CHIR/XAV promotes EpiSC self-renewal. By inhibiting GSK3 phosphorylation of β-catenin, CHIR stabilizes β-catenin, which then trans-locates to the nucleus and forms complexes with DNA-binding proteins, including TCFs, to activate transcription (Logan and Nusse, 2004). […] Axin has two isoforms, Axin1 and Axin2. […] The expression level of Axin2, but not Axin1, was also elevated by CHIR treatment (FIG. 4C), an outcome consistent with previous findings that Axin2 is a direct downstream target of Wnt/β-catenin signaling (Jho et al., 2002). […]

[3] = system: Axin2; experiment: Western blot of Axin2 in mouse EpiSCs; settings: CD1 mouse EpiSCs treated 12 h
[4] = system: β-catenin/TCF-responsive TOPFlash reporter; experiment: TOPFlash reporter assay in H9 human ESCs; settings: 24 h, added to CHIR
Protocol: (A) TOPFlash™ assay in H9 human ESCs subjected to the indicated treatments for 24 h. Data represent mean±s.d. of three biological replicates. (B) Representative phase contrast and alkaline phosphatase (AP) staining images of H9 human ESCs cultured in the indicated conditions for 3 passages. (C) Phase contrast images of H9 human ESCs cultured in CHIR/XAV or CHIR/IWR-1 for 11 passages. (D) Colony forming efficiency assay of H9 human ESCs cultured in FGF2 or CHIR/IWR-1 conditions. Data represent mean±s.d. of three biological replicates. Right panel: a representative image showing AP staining of colonies formed from H9 human ESCs cultured in either FGF2 or CHIR/IWR-1 condition. (E) Human ESCs cultured in CHIR/IWR-1 for 11 passages were immunostained with the indicated antibodies. (F) Embryoid bodies (EBs) were generated from H9 human ESCs cultured in CHIR/IWR-1 for 11 passages. The outgrowths of EBs were immunostained with the indicated antibodies. (G) H&E staining of teratomas generated from H9 ESCs cultured in CHIR/IWR-1 for 20 passages. (H) Western blot analysis of Axin1 and Axin2 expression in HES3 human ESCs treated with the indicated cytokines/inhibitors for 24 h. (I) Immunofluorescence images of H9 human ESCs (passage 5 in CHIR) overexpressing Flag-tagged Axin2. (J) Representative phase contrast and immunofluorescence images of HES2 human ESCs overexpressing ΔNβ-catenin-ERT2 at passage 5 in basal medium only. These cells were cultured in basal medium only for more than 10 passages and remained morphologically undifferentiated. (K) Phase contrast images of HES2 human ESCs overexpressing ΔNβ-catenin (left panel, passage 2 in basal medium/FGF2) or ΔNβ-catenin/A295W/I296W mutant (right panel, passage 5 in basal medium only). Scale bars, 50 μm (B, C, E-G, and I-K). (L) Model of mouse EpiSC and human ESC self-renewal mediated by β-catenin. In the absence of Wnt or GSK3 inhibitor, a β-catenin destruction complex, containing Axin1, GSK3, and APC is formed, leading to the degradation of β-catenin and differentiation (left). In the presence of Wnt or GSK3 inhibitor, β-catenin is stabilized and can initiate cellular responses related to both self-renewal and differentiation. Stabilized β-catenin induces differentiation when it translocates into the nucleus and binds TCFs to activate downstream targets (middle). Addition of XAV or IWR-1 stabilizes Axin2. […]
as §2

[5] = system: Axin1; experiment: Western blot of Axin1 in human ESCs; settings: human ESCs treated 24 h
Protocol: (A) TOPFlash™ assay in H9 human ESCs subjected to the indicated treatments for 24 h. Data represent mean±s.d. of three biological replicates. (B) Representative phase contrast and alkaline phosphatase (AP) staining images of H9 human ESCs cultured in the indicated conditions for 3 passages. (C) Phase contrast images of H9 human ESCs cultured in CHIR/XAV or CHIR/IWR-1 for 11 passages. (D) Colony forming efficiency assay of H9 human ESCs cultured in FGF2 or CHIR/IWR-1 conditions. Data represent mean±s.d. of three biological replicates. Right panel: a representative image showing AP staining of colonies formed from H9 human ESCs cultured in either FGF2 or CHIR/IWR-1 condition. (E) Human ESCs cultured in CHIR/IWR-1 for 11 passages were immunostained with the indicated antibodies. (F) Embryoid bodies (EBs) were generated from H9 human ESCs cultured in CHIR/IWR-1 for 11 passages. The outgrowths of EBs were immunostained with the indicated antibodies. (G) H&E staining of teratomas generated from H9 ESCs cultured in CHIR/IWR-1 for 20 passages. (H) Western blot analysis of Axin1 and Axin2 expression in HES3 human ESCs treated with the indicated cytokines/inhibitors for 24 h. (I) Immunofluorescence images of H9 human ESCs (passage 5 in CHIR) overexpressing Flag-tagged Axin2. […]

[6] = system: Axin2; experiment: Western blot of Axin2 in human ESCs; settings: human ESCs treated 24 h
[7] = system: mouse EpiSCs; experiment: Mouse EpiSC self-renewal culture; settings: for EpiSC self-renewal / maintenance of undifferentiated state: CD1 mouse EpiSCs, GMEM/10% FBS, no FGF2/activin unless named, CHIR 3 μM, PD0325901 1 μM, XAV939 2 μM, IWR-1 2.5 μM, IWP-2 2.5 μM, Pyrvinium 100 nM
Text: We therefore reasoned that if CHIR induces EpiSC differentiation through stabilization of β-catenin, de-stabilization of β-catenin might promote EpiSC self-renewal. We tested this hypothesis by administering the tankyrase inhibitor XAV939 to mouse EpiSC cultures. XAV939-mediated inhibition of tankyrase stabilizes Axin, leading to the formation of the β-catenin destruction complex, composed of GSK3, Axin and adenomatous polyposis coli (APC) (Huang et al., 2009). […] EpiSCs cultured in CHIR/XAV could be routinely passaged by single-cell dissociation and replating onto gelatin-coated dishes, and could be cryo-preserved and recovered at high efficiency by standard techniques.
final concentrations: CHIR99021 (3 μM), PD0325901 (1 μM), XAV939 (Sigma, 2 μM), IWR-1 (Sigma, 2.5 μM), IWP-2 (Stemgent, 2.5 μM), Pyrvinium (Sigma, 100 nM), recombinant human FGF2 (PeproTech, 10 ng/ml), and recombinant human activin A (PeproTech, 10 ng/ml). CHIR99021 and PD0325901 were synthesized in the Division of Signal Transduction Therapy, University of Dundee, UK.
The basal medium for mouse EpiSC culture is the conventional mouse ESC medium, which consists of GMEM (Sigma) supplemented with 10% fetal bovine serum (FBS) (Hyclone), 2 mM L-glutamine (Invitrogen), 1 mM sodium pyruvate (Invitrogen), 1% nonessential amino acids (Invitrogen), and 0.1 mM (3-mercaptoethanol. Mouse EpiSCs were derived and maintained in the basal medium supplemented with FGF2/activin, CHIR/XAV, or CHIR/IWR-1. The basal medium for rat EpiSC culture is N2B27 (Tong et al., 2011), which was prepared by mixing 500 ml of DMEM/F12 (Invitrogen) with 500 ml of Neurobasal™ medium (Invitrogen), and adding 5 ml of N2 (Invitrogen), 10 ml of B27 (Invitrogen), 5 ml of Glutamax™ (Invitrogen), and 1 ml of 0.1 M β-mercaptoethanol (Sigma). The basal medium for human ESC culture consists of Knockout™ DMEM/F12 supplemented with 20% KSR (Invitrogen), 1% nonessential amino acids, 2 mM L-glutamine, and 0.1 mM (3-mercaptoethanol. Human ESCs were cultured in the basal medium supplemented with FGF2, CHIR/XAV, or CHIR/IWR-1.
Post-implantation epiblasts were isolated from mouse or rat embryos and dissociated into small clumps as previously described (Chenoweth and Tesar, 2010). Epiblast fragments were placed into 4-well plates pre-coated with 0.1% gelatin (for mouse epiblasts) or pre-seeded with γ-irradiated mouse embryonic fibroblasts (MEFs) (for rat epiblasts) and cultured in either the FGF2/activin or the CHIR/XAV conditions. Emerging EpiSCs were trypsinized and expanded every 2-3 days at a subculture ratio of 1:4. Animal experiments were performed according to the investigator's protocols approved by the University of Southern California Institutional Animal Care and Use Committee.

[8] = system: β-catenin-TCF transcriptional activity; experiment: β-catenin-TCF transcriptional activity induced by CHIR; settings: data not shown
Text: The role of β-catenin in human ESC self-renewal has been controversial. […] Our finding that activation of β-catenin can promote human ESC self-renewal or differentiation, and that the respective outcome is dictated by whether β-catenin translocates into the nucleus, provides a rational explanation for earlier, seemingly paradoxical results. […] Some of the contradicted results on the role of β-catenin in human ESC self-renewal, therefore, might be attributable to variations in the subcellular localization of β-catenin under different culture conditions.

Q: O=C(Nc1cccc2cccnc12)c1ccc(N2C(=O)[C@@H]3[C@H](C2=O)[C@@H]2C=C[C@H]3C2)cc1 [IWR-1, 4-(1,3,3a,4,7,7a-Hexahydro-1,3-dioxo-4,7-methano-2H-isoindol-2-yl)-N-8-quinolinyl-Benzamide] was tested. Which “effect on TOPFlash activity induced by CHIR” value [1] did it give?
A: blocked TOPFlash™ reporter activity induced by CHIR

Q: And the “amount of Axin1 protein” value [2]?
A: significantly increased

Q: What about the “amount of Axin2 protein” value [3] of the same compound?
A: significantly increased

Q: What about the “effect on TOPFlash activity induced by CHIR” value [4] of the same compound?
A: abolished this TOPFlash™ activity

Q: What about the “amount of Axin1 protein” value [5] of the same compound?
A: significantly increased

Q: What about the “amount of Axin2 protein” value [6] of the same compound?
A: significantly increased

Q: With 4-hydroxytamoxifen [4-OHT] as the compound, how does the “differentiation of ΔNβ-catenin-ERT2-overexpressing EpiSCs” value ([7]; 1 μM 4-OHT, even in the presence of IWR-1) read?
A: resulted in rapid differentiation

Q: For Cc1cc(/C=C/c2ccc3cc(N(C)C)ccc3[n+]2C)c(C)n1-c1ccccc1 [Pyrvinium], which “EpiSC self-renewal / maintenance of undifferentiated state” value [7] is on record?
A: unable to support EpiSC self-renewal

Q: With Cc1ccc2nc(NC(=O)CSc3nc4c(c(=O)n3-c3ccccc3)SCC4)sc2c1 [IWP-2] as the compound, how does the “EpiSC self-renewal / maintenance of undifferentiated state” value [7] read?
A: unable to support EpiSC self-renewal

Q: And the “effect on TOPFlash activity induced by CHIR” value [4]?
A: only partially suppressed

Q: “bovine serum albumin: bovine serum albumin” was tested. Which “effect on β-catenin-TCF transcriptional activity induced by CHIR” value [8] did it give?
A: partially block
